The values that follow come from PMC11233931, “Remodeling tumor‐associated macrophage for anti‐cancer effects by rational design of irreversible inhibition of mitogen‐activated protein kinase‐activated protein kinase 2” (MedComm, 2024).

Molecules are shown by their SMILES.

Common to all, as to assay: Eurofins kinase selectivity profile against 380 other human recombinant kinases (Table S2)
What all share (format): biochemical

Test [1] addresses T1, 380 human recombinant protein kinases (Homo sapiens, UniProt Q8IVH8).
T1 construct: purchased Eurofins (Celle Lévescault)
T1 sequence (Q8IVH8 1-894): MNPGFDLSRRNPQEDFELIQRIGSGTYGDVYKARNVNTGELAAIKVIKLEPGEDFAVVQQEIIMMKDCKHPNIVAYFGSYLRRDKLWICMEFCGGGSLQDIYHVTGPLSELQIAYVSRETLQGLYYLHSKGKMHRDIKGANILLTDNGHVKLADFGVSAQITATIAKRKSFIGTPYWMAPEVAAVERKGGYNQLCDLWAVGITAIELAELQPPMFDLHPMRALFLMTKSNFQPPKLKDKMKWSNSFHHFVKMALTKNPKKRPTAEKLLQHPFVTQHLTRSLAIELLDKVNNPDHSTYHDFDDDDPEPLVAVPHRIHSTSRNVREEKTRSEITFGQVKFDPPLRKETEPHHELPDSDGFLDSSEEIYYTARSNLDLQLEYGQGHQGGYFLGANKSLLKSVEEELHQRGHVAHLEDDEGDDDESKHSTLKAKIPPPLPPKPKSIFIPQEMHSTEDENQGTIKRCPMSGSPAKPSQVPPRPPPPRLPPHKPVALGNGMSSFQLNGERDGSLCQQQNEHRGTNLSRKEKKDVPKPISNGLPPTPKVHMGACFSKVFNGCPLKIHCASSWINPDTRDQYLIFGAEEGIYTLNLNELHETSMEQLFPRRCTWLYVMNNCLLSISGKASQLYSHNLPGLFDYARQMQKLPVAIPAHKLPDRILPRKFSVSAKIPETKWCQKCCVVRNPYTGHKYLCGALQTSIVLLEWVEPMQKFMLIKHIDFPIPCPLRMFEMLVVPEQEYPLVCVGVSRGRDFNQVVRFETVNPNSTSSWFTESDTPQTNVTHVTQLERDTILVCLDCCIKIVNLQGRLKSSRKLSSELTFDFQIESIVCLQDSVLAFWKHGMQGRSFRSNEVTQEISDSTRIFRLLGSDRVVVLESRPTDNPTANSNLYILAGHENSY
The settings on record: MAP4K3(h), read-out: Inhibition rate. The procedure, abridged:
(§1)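 The inhibitor was sent to a contract lab and screened at various concentrations against 380 human recombinant protein kinases. This served as a counter-screen for MK2 specificity.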

Test [2] has as its target T2, 380 human recombinant protein kinases (Homo sapiens, UniProt O14920).
T2 construct: purchased Eurofins (Celle Lévescault)
T2 sequence (O14920 1-756): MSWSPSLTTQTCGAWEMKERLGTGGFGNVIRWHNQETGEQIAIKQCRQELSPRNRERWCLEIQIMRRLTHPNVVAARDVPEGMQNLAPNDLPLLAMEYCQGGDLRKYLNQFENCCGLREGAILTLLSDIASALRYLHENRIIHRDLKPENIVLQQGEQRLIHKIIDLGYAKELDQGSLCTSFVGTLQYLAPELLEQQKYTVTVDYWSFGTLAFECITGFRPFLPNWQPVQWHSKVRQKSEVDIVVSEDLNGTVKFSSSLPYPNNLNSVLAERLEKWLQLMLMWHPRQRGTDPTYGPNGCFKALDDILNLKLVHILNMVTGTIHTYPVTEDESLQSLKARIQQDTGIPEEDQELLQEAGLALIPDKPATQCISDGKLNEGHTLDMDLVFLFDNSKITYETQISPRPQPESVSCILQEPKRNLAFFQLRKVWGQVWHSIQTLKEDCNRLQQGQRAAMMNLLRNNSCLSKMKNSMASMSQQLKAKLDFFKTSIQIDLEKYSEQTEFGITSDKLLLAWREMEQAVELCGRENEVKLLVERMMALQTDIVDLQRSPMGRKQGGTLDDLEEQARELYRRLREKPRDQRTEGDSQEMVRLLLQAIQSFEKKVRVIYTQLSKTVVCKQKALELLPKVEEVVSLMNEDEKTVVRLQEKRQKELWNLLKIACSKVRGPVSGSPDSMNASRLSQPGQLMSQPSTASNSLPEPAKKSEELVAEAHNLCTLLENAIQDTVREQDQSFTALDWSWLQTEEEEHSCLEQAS
The settings on record: IKKβ(h), read-out: Inhibition rate. The procedure, abridged:
as §1

The target in test [3] is T3, 380 human recombinant protein kinases (Homo sapiens, UniProt P11362).
T3 construct: purchased Eurofins (Celle Lévescault)
The settings on record: FGFR1(h), read-out: Inhibition rate. The procedure, abridged:
as §1

T3 sequence (P11362 22-822): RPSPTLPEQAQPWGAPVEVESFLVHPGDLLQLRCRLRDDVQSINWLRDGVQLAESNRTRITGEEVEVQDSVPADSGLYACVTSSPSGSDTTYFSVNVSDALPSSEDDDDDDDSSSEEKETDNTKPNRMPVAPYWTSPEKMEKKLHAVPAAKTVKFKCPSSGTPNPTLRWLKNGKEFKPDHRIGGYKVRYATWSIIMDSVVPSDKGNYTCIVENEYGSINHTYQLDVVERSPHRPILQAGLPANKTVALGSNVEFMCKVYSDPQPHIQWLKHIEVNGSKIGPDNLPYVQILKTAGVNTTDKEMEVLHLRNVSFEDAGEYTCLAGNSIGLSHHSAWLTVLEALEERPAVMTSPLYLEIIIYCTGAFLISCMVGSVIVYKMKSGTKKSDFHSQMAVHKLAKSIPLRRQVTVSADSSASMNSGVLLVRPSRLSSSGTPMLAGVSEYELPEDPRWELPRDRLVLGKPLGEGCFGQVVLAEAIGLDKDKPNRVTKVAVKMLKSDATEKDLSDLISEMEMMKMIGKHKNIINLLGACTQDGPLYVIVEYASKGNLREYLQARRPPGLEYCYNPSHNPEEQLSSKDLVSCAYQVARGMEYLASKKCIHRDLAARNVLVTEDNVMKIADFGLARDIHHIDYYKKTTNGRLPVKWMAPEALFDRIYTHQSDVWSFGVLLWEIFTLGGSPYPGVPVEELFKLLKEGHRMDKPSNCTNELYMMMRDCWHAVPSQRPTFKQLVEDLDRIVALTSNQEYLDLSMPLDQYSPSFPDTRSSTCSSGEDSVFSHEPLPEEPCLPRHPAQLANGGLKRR

Turning to `C=CC(=O)Nc1cc(-c2cc(-c3cc4c([nH]3)CCNC4=O)ccn2)ccc1OC(F)(F)F` [compound 11], the inhibition at 0.01 µM is -8% in test [1] (10 nM), -15% in test [2] (10 nM) and -2% in test [3] (10 nM). In addition, the figures for the inhibition at 0.1 µM in test [1] (100 nM), in test [2] (100 nM) and in test [3] (100 nM) were -4%, -12% and 6%, respectively. Moreover, the inhibition at 1 µM in test [1] (1000 nM) is 3%; in test [2] (1000 nM) it was -12%; in test [3] (1000 nM) it was 7%.
